Data from patent US12221453B2, “Substituted pyrazolo[5′,1′:2,3]pyrimido[5,4-b][1,4]oxazines as TYK2 inhibitors” (TAKEDA PHARMACEUTICAL COMPANY LIMITED, priority 2018, dated 2025).

System: IL-12 induced STAT4 phosphorylation mediated by TYK2/JAK2
Assay: IL-12 induced pSTAT4 in human PBMC
Type: cell-based
Conditions: 1 hr compound, 1.7 ng/mL IL-12 for 30 minutes
Method in brief: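 Thawed human PBMC were pre-incubated with compound for 1 hr at 37 °C (0.1% DMSO), then stimulated with 1.7 ng/mL IL-12 for 30 minutes. Phospho-STAT4 and total STAT4 were measured in cell lysates by MSD.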

IC50, < 0.1 µM:
CNc1cc(-c2cn(C3COC3)c3ncccc23)nc2c(C(=O)NC3CCC3(F)F)cnn12 (stereo not shown) [Compound I-673]
CNc1cc(-c2cn(C3COC3)c3ncccc23)nc2c(C(=O)N[C@@H]3CCC3(F)F)cnn12 [Compound I-675]
CNc1cc(-c2cn(C3CN(C)C3)c3ncccc23)nc2c(C(=O)NC3CCC3(F)F)cnn12 (stereo not shown) [Compound I-676]
CNc1cc(-c2cn([C@H]3C[C@@H](O)C3)c3ncccc23)nc2c(C(=O)NC3CCC3(F)F)cnn12 (stereo partly shown) [Compound I-677]
CNc1cc(-c2cn(C3CCCC3)c3ncccc23)nc2c(C(=O)NC3CCC3(F)F)cnn12 (stereo not shown) [Compound I-680]
CNc1cc(-c2cn(C3CCCC3)c3ncccc23)nc2c(C(=O)N[C@@H]3CCC3(F)F)cnn12 [Compound I-681]
CNc1cc(-c2cn(C3CCCC3)c3ncccc23)nc2c(C(=O)N[C@H]3CCC3(F)F)cnn12 [Compound I-685]
CNc1cc(-c2cn([C@@H]3CCN(C)C3)c3ncccc23)nc2c(C(=O)NC3CCC3(F)F)cnn12 (stereo partly shown) [Compound I-686]
CNc1cc(-c2cn([C@@H]3COC[C@H]3O)c3ncccc23)nc2c(C(=O)NC3CCC3(F)F)cnn12 (stereo partly shown) [Compound I-692]
CNc1cc(-c2cn([C@@H]3COC[C@H]3O)c3ncccc23)nc2c(C(=O)N[C@H]3CCC3(F)F)cnn12 [Compound I-693]
CNc1cc(-c2cn([C@H]3COC[C@@H]3O)c3ncccc23)nc2c(C(=O)NC3CCC3(F)F)cnn12 (stereo partly shown) [Compound I-695]
CNc1cc(-c2cn(C3CCOCC3)c3ncccc23)nc2c(C(=O)N[C@H]3CCC3(F)F)cnn12 [Compound I-699]
CNc1cc(-c2cn([C@@H]3CCOC[C@@H]3OC)c3ncccc23)nc2c(C(=O)NC3CCC3(F)F)cnn12 (stereo partly shown) [Compound I-702]
CNc1cc(-c2cn([C@@H]3CCOC[C@@H]3OC)c3ncccc23)nc2c(C(=O)N[C@H]3CCC3(F)F)cnn12 [Compound I-703]
CNc1cc(-c2cn([C@H]3CC3(F)F)c3ncccc23)nc2c(C(=O)N[C@@H]3COC[C@@H]3O)cnn12 [Compound I-711]
CNc1cc(-c2cn([C@H]3CCC[C@H]3F)c3ncccc23)nc2c(C(=O)N[C@H]3COC[C@H]3O)cnn12 [Compound I-722]
CNc1cc(-c2cn([C@H]3COC[C@H]3F)c3ncccc23)nc2c(C(=O)N[C@H]3COC[C@H]3O)cnn12 [Compound I-726]
CNc1cc(-c2cn([C@H]3COC[C@@H]3OC)c3ccccc23)nc2c(C(=O)NC3CC[C@@H]3OC)cnn12 (stereo partly shown) [Compound I-741]
CNc1cc(-c2cn([C@H]3COC[C@@H]3OC)c3ccccc23)nc2c(C(=O)N[C@H]3CC[C@@H]3OC)cnn12 [Compound I-742]
CNc1cc(-c2cn([C@@H]3COC[C@H]3OC)c3ccccc23)nc2c(C(=O)NC3CC[C@@H]3OC)cnn12 (stereo partly shown) [Compound I-744]
CNc1cc(-c2cn([C@@H]3COC[C@H]3OC)c3ccccc23)nc2c(C(=O)N[C@@H]3CC[C@H]3OC)cnn12 [Compound I-746]
O=C(N[C@@H]1C[C@@H]1F)c1cnn2c3c(c(Nc4cccc5ocnc45)nc12)OCCN3 [Compound I-752]
CC(C)n1cc(-c2nc3c(C(=O)NC4CC[C@H]4O)cnn3c3c2OCCN3)c2cccnc21 (stereo partly shown) [Compound I-753]
CC(C)n1cc(-c2nc3c(C(=O)N[C@H]4CC[C@H]4O)cnn3c3c2OCCN3)c2cccnc21 [Compound I-754]
O=C(NC1CC[C@@H]1F)c1cnn2c3c(c(-c4cn([C@H]5C[C@H](O)C5)c5ncccc45)nc12)OCCN3 (stereo partly shown) [Compound I-756]
O=C(N[C@H]1CC[C@@H]1F)c1cnn2c3c(c(-c4cn([C@H]5C[C@H](O)C5)c5ncccc45)nc12)OCCN3 [Compound I-757]
CO[C@@H]1CC[C@H]1NC(=O)c1cnn2c3c(c(Nc4cccn(C(C)C)c4=O)nc12)OCCN3 [Compound I-760]
CO[C@@H]1CCC1NC(=O)c1cnn2c3c(c(Nc4cccn([C@H]5[C@@H]6COC[C@@H]65)c4=O)nc12)OCCN3 (stereo partly shown) [Compound I-762]
CC(C)n1cccc(Nc2nc3c(C(=O)NC4CCC4(F)F)cnn3c3c2OCCN3)c1=O (stereo not shown) [Compound I-765]
CC(C)n1cccc(Nc2nc3c(C(=O)N[C@H]4CCC4(F)F)cnn3c3c2OCCN3)c1=O [Compound I-766]
O=C(NC1CCC1(F)F)c1cnn2c3c(c(Nc4cccn([C@H]5[C@@H]6COC[C@@H]65)c4=O)nc12)OCCN3 (stereo partly shown) [Compound I-768]
O=C(N[C@@H]1CCC1(F)F)c1cnn2c3c(c(Nc4cccn([C@H]5[C@@H]6COC[C@@H]65)c4=O)nc12)OCCN3 [Compound I-769]
O=C(N[C@@H]1CCC1(F)F)c1cnn2c3c(c(-c4cn(C5COC5)c5ncccc45)nc12)OCCN3 [Compound I-772]
O=C(NC1CC[C@@H]1F)c1cnn2c3c(c(-c4cn(C5COC5)c5ncccc45)nc12)OCCN3 (stereo partly shown) [Compound I-774]
O=C(N[C@H]1CCC1(F)F)c1cnn2c3c(c(-c4cn([C@H]5C[C@H](O)C5)c5ncccc45)nc12)OCCN3 [Compound I-776]
CNc1cc(Nc2cccn([C@H]3C[C@@H](OC)C3)c2=O)nc2c(C(=O)NC3CC[C@@H]3OC)cnn12 (stereo partly shown) [Compound I-780]
CNc1ccc(-c2cc(NC)n3ncc(C(=O)N[C@H]4CC[C@H]4F)c3n2)n2ccnc12 [Compound I-784]
CNc1cc(-c2cn([C@@H]3COC[C@H]3OC)c3ccccc23)nc2c(C(=O)N[C@H]3CC[C@H]3O)cnn12 [Compound I-787]
CNc1cc(-c2cn([C@H]3COC[C@@H]3OC)c3ccccc23)nc2c(C(=O)N[C@H]3CC[C@H]3O)cnn12 [Compound I-790]
CNc1cc(-c2cn(CCOC)c3ncccc23)nc2c(C(=O)NC3CC[C@@H]3OC)cnn12 (stereo partly shown) [Compound I-795]
CNc1cc(-c2cn([C@H]3CCOC[C@H]3OC)c3ncccc23)nc2c(C(=O)N[C@H]3CC[C@@H]3F)cnn12 [Compound I-796]
CNc1cc(-c2cn([C@@H]3CCOC[C@@H]3OC)c3ncccc23)nc2c(C(=O)N[C@H]3CC[C@@H]3F)cnn12 [Compound I-798]
CNc1cc(-c2cn([C@H]3CCOC[C@@H]3F)c3ncccc23)nc2c(C(=O)N[C@H]3CC[C@@H]3OC)cnn12 [Compound I-802]
CNc1cc(-c2cn([C@@H]3CCOC[C@H]3F)c3ncccc23)nc2c(C(=O)N[C@H]3CC[C@@H]3OC)cnn12 [Compound I-804]
CNc1cc(-c2cn([C@@H]3CCC4(C3)OCCO4)c3ncccc23)nc2c(C(=O)N[C@H]3CC[C@@H]3OC)cnn12 [Compound I-806]
CNc1cc(-c2cn([C@H]3CCC4(C3)OCCO4)c3ncccc23)nc2c(C(=O)N[C@H]3CC[C@@H]3OC)cnn12 [Compound I-808]
CNc1cc(-c2cn([C@H]3CCOC[C@H]3OC)c3ncccc23)nc2c(C(=O)N[C@@H]3CCC3(F)F)cnn12 [Compound I-811]
CNc1cc(-c2cnc3n([C@H]4COC[C@@H]4O)cccc2-3)nc2c(C(=O)NC3CC3)cnn12 [Compound I-816]
CNc1cc(-c2cnc3n([C@@H]4COC[C@H]4O)cccc2-3)nc2c(C(=O)NC3CC3)cnn12 [Compound I-817]
CNc1cc(-c2cnc3n([C@H]4CCOC[C@@H]4O)cccc2-3)nc2c(C(=O)NC3CC3)cnn12 [Compound I-819]
CNc1cc(-c2cnc3n([C@H]4COC[C@@H]4O)cccc2-3)nc2c(C(=O)N[C@@H]3C[C@@H]3F)cnn12 [Compound I-820]
CNc1cc(-c2cnc3n([C@@H]4CCOC[C@H]4O)cccc2-3)nc2c(C(=O)N[C@@H]3C[C@@H]3F)cnn12 [Compound I-824]
CNc1cc(-c2cnc3n([C@H]4CCOC[C@@H]4O)cccc2-3)nc2c(C(=O)N[C@@H]3C[C@@H]3F)cnn12 [Compound I-825]
CNc1cc(-c2cnc3n([C@@H]4COC[C@H]4O)cccc2-3)nc2c(C(=O)NC3CC[C@@H]3F)cnn12 (stereo partly shown) [Compound I-827]
CNc1cc(-c2cnc3n([C@H]4COC[C@@H]4O)cccc2-3)nc2c(C(=O)N[C@H]3CC[C@@H]3F)cnn12 [Compound I-828]
CNc1cc(-c2cnc3n([C@@H]4COC[C@H]4O)cccc2-3)nc2c(C(=O)N[C@H]3CC[C@@H]3F)cnn12 [Compound I-830]
CNc1cc(-c2cnc3n([C@H]4COC[C@@H]4OC)cccc2-3)nc2c(C(=O)N[C@H]3CC[C@@H]3F)cnn12 [Compound I-833]
CNc1cc(-c2cnc3n([C@@H]4COC[C@H]4OC)cccc2-3)nc2c(C(=O)NC3CC[C@@H]3F)cnn12 (stereo partly shown) [Compound I-835]
CNc1cc(-c2cnc3n([C@H]4COC[C@@H]4OC)cccc2-3)nc2c(C(=O)NC3CC[C@H]3F)cnn12 (stereo partly shown) [Compound I-838]
CNc1cc(-c2cnc3n([C@H]4COC[C@@H]4OC)cccc2-3)nc2c(C(=O)N[C@H]3CC[C@H]3F)cnn12 [Compound I-839]
CNc1cc(-c2cnc3n([C@H]4COC[C@@H]4OC)cccc2-3)nc2c(C(=O)N[C@@H]3CC[C@@H]3F)cnn12 [Compound I-840]
CNc1cc(-c2cnc3n([C@@H]4COC[C@H]4OC)cccc2-3)nc2c(C(=O)NC3CC[C@H]3F)cnn12 (stereo partly shown) [Compound I-841]
CNc1cc(-c2cnc3n([C@@H]4CCOC[C@H]4O)cccc2-3)nc2c(C(=O)N[C@H]3CC[C@@H]3F)cnn12 [Compound I-848]
CNc1cc(-c2cnc3n([C@@H]4COC[C@H]4O)cccc2-3)nc2c(C(=O)N[C@@H]3CC[C@H]3OC)cnn12 [Compound I-876]
